Here are results for five compounds from ChEMBL document CHEMBL1287762, “Synthesis and biological evaluation of 3-[4-(amino/methylsulfonyl)phenyl]methylene-indolin-2-one derivatives as novel COX-1/2 and 5-LOX inhibitors” (Bioorg Med Chem Lett, 2010).

The structures appear in SMILES notation.

Series [1] addresses T1, Prostaglandin G/H synthase 2 (Oryctolagus cuniculus, UniProt O02768).
T1 sequence (O02768 whole entry): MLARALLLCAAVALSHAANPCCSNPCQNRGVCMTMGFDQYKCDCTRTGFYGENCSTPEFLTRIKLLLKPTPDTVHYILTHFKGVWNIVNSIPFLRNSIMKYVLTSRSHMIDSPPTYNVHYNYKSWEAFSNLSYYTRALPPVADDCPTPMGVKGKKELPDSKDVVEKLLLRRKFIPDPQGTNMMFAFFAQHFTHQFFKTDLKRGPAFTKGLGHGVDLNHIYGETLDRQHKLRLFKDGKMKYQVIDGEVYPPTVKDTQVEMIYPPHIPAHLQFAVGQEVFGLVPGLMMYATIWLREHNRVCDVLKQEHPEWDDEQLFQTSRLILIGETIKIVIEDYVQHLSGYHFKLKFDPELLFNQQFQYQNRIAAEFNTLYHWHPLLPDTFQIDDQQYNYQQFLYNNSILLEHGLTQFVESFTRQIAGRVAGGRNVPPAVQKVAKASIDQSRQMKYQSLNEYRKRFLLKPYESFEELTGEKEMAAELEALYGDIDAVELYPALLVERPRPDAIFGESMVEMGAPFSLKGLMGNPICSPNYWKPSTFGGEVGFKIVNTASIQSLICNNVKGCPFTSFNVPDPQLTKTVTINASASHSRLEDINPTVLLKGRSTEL
The series is described as follows: Inhibition of COX-2 in rabbit peripheral venous blood assessed as formation of 12-hydroxyheptadecatrienoic acid after 24 hrs in by HPLC presence of calcium ionophore […] and lipopolysaccharide. Type of series: tissue-based.

For series [2], the target named is T2, Prostaglandin G/H synthase 1 (Oryctolagus cuniculus, UniProt O97554).
T2 sequence (O97554 whole entry): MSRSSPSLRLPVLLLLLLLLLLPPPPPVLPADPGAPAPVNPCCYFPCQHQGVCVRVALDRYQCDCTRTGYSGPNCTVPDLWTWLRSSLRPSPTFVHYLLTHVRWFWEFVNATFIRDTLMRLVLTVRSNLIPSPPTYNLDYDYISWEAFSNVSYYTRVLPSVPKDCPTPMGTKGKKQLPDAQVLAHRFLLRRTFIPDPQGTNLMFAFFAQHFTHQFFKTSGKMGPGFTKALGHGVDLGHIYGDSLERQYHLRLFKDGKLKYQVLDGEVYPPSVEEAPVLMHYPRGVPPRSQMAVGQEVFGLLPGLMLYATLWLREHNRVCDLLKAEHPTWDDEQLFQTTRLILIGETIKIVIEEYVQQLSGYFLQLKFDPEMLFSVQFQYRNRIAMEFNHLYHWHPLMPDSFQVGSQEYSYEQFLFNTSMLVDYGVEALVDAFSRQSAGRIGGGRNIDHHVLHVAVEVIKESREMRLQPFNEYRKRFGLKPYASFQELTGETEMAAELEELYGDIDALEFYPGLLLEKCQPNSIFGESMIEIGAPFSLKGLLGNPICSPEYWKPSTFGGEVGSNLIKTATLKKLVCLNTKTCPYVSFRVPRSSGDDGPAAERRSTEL
The series is described as follows: Inhibition of COX-1 in rabbit peripheral venous blood assessed as formation of 12-hydroxyheptadecatrienoic acid after 24 hrs by HPLC in presence of calcium ionophore A23187.

A short description of series [3]: Inhibition of 5-LOX in rabbit peripheral venous blood assessed as formation of […] after 30 mins by HPLC. It counts as tissue-based, Oryctolagus cuniculus.
For a further series, the species on record is Oryctolagus cuniculus. The series is described as follows: Selectivity ratio, IC50 for COX-1in rabbit peripheral venous blood to IC50 for COX-2 in rabbit peripheral venous blood. It counts as tissue-based.
Series [4] has as its system Rattus norvegicus. The series is described as follows: Antiinflammatory activity in Wistar rat assessed as inhibition of carrageenan-induced paw edema at 10.44 mg/kg, po administered 1 hr before carrageenan challenge measured at 1 hr by plethysmometer. Type of series: functional.
In series [5] the test system is Rattus norvegicus. Nature of the series: Antiinflammatory activity in Wistar rat assessed as inhibition of carrageenan-induced paw edema at 10.44 mg/kg, po administered 1 hr before carrageenan challenge measured at 3 hrs by plethysmometer. It counts as functional. On the technique in general: In the carrageenan paw model, swelling and tenderness develop within hours.

Series [6] has as its system Rattus norvegicus. Nature of the series: Antiinflammatory activity in Wistar rat assessed as inhibition of carrageenan-induced paw edema at 10.44 mg/kg, po administered 1 hr before carrageenan challenge measured at 6 hrs by plethysmometer. It counts as functional.
For series [7], the system named is Mus musculus. Nature of the series: Analgesic activity in BALB/c mouse assessed as inhibition of acetic acid-induced writhing response for 15 mins at 20.88 mg/kg, po. It counts as functional. Particulars: 0.25 h.
The test system of series [8] is Rattus norvegicus. The series is described as follows: Ulcerogenic effect in Wistar rat assessed as gastric ulcer area at 10.44 mg/kg, po administered for 7 days by microscopy. It counts as toxicity, organism-based, Stomach. Set-up: dose 10.44 mg/kg, route oral. Particulars: in vivo, 168 h.
In series [9] the test system is Rattus norvegicus. Nature of the series: Antiinflammatory activity in Wistar rat assessed as inhibition of carrageenan-induced paw edema at 9.08 mg/kg, po administered 1 hr before carrageenan challenge measured at 1 hr by plethysmometer. It counts as functional.
The test system of series [10] is Rattus norvegicus. Nature of the series: Antiinflammatory activity in Wistar rat assessed as inhibition of carrageenan-induced paw edema at 9.08 mg/kg, po administered 1 hr before carrageenan challenge measured at 3 hrs by plethysmometer. Type of series: functional.
The test system of series [11] is Rattus norvegicus. The series is described as follows: Antiinflammatory activity in Wistar rat assessed as inhibition of carrageenan-induced paw edema at 9.08 mg/kg, po administered 1 hr before carrageenan challenge measured at 6 hrs by plethysmometer. It counts as functional.
The test system of series [12] is Mus musculus. The series is described as follows: Analgesic activity in BALB/c mouse assessed as inhibition of acetic acid-induced writhing response for 15 mins at 18.16 mg/kg, po. Type of series: functional. Particulars: 0.25 h. A general note: An intraperitoneal irritant provokes the stretching counted in writhing tests.
For series [13], the system named is Rattus norvegicus. The series is described as follows: Ulcerogenic effect in Wistar rat assessed as gastric ulcer area at 9.08 mg/kg, po administered for 7 days by microscopy. Also on record: dose 9.08 mg/kg, route oral. It counts as toxicity, organism-based, Stomach. To be noted: in vivo, 168 h.
Series [14] has as its system Rattus norvegicus. Nature of the series: Antiinflammatory activity in Wistar rat assessed as inhibition of carrageenan-induced paw edema at 11.48 mg/kg, po administered 1 hr before carrageenan challenge measured at 1 hr by plethysmometer. It counts as functional.
For series [15], the system named is Rattus norvegicus. Nature of the series: Antiinflammatory activity in Wistar rat assessed as inhibition of carrageenan-induced paw edema at 11.48 mg/kg, po administered 1 hr before carrageenan challenge measured at 3 hrs by plethysmometer. Type of series: functional.
The test system of series [16] is Rattus norvegicus. The series is described as follows: Antiinflammatory activity in Wistar rat assessed as inhibition of carrageenan-induced paw edema at 11.48 mg/kg, po administered 1 hr before carrageenan challenge measured at 6 hrs by plethysmometer. It counts as functional.
Series [17] relates to Mus musculus. The series is described as follows: Analgesic activity in BALB/c mouse assessed as inhibition of acetic acid-induced writhing response for 15 mins at 22.96 mg/kg, po. It counts as functional. Particulars: 0.25 h.
Series [18] concerns Rattus norvegicus. Nature of the series: Ulcerogenic effect in Wistar rat assessed as gastric ulcer area at 11.48 mg/kg, po administered for 7 days by microscopy. Type of series: toxicity, organism-based, Stomach. Set-up: dose 11.48 mg/kg, route oral. To be noted: in vivo, 168 h.
In series [19] the test system is Rattus norvegicus. Nature of the series: Antiinflammatory activity in Wistar rat assessed as inhibition of carrageenan-induced paw edema at 10.15 mg/kg, po administered 1 hr before carrageenan challenge measured at 1 hr by plethysmometer. Type of series: functional.
Series [20] relates to Rattus norvegicus. Nature of the series: Antiinflammatory activity in Wistar rat assessed as inhibition of carrageenan-induced paw edema at 10.15 mg/kg, po administered 1 hr before carrageenan challenge measured at 3 hrs by plethysmometer. It counts as functional.
Series [21] has as its system Rattus norvegicus. Nature of the series: Antiinflammatory activity in Wistar rat assessed as inhibition of carrageenan-induced paw edema at 10.15 mg/kg, po administered 1 hr before carrageenan challenge measured at 6 hrs by plethysmometer. Type of series: functional.
Series [22] deals with Mus musculus. The series is described as follows: Analgesic activity in BALB/c mouse assessed as inhibition of acetic acid-induced writhing response for 15 mins at 20.30 mg/kg, po. It counts as functional. Particulars: 0.25 h.
Series [23] concerns Rattus norvegicus. Nature of the series: Ulcerogenic effect in Wistar rat assessed as gastric ulcer area at 10.15 mg/kg, po administered for 7 days by microscopy. Also on record: dose 10.15 mg/kg, route oral. To be noted: in vivo, 168 h. Type of series: toxicity, organism-based, Stomach.
Series [24] deals with Rattus norvegicus. Nature of the series: Antiinflammatory activity in Wistar rat assessed as inhibition of carrageenan-induced paw edema at 10.47 mg/kg, po administered 1 hr before carrageenan challenge measured at 1 hr by plethysmometer. Type of series: functional.
Series [25] relates to Rattus norvegicus. Nature of the series: Antiinflammatory activity in Wistar rat assessed as inhibition of carrageenan-induced paw edema at 10.47 mg/kg, po administered 1 hr before carrageenan challenge measured at 3 hrs by plethysmometer. Type of series: functional.
Series [26] relates to Rattus norvegicus. The series is described as follows: Antiinflammatory activity in Wistar rat assessed as inhibition of carrageenan-induced paw edema at 10.47 mg/kg, po administered 1 hr before carrageenan challenge measured at 6 hrs by plethysmometer. It counts as functional.
Series [27] has as its system Mus musculus. Nature of the series: Analgesic activity in BALB/c mouse assessed as inhibition of acetic acid-induced writhing response for 15 mins at 20.94 mg/kg, po. Type of series: functional. To be noted: 0.25 h.
Series [28] relates to Rattus norvegicus. Nature of the series: Ulcerogenic effect in Wistar rat assessed as gastric ulcer area at 10.47 mg/kg, po administered for 7 days by microscopy. It counts as toxicity, organism-based, Stomach. Set-up: dose 10.47 mg/kg, route oral. To be noted: in vivo, 168 h.

As usually defined, the IC50 is the concentration that gives 50% inhibition. Usually inhibition in vivo stands for the change of the read-out against control, counted positive when it falls. Regarding `CS(=O)(=O)c1ccc(/C=C2/C(=O)Nc3ccc([N+](=O)[O-])cc32)cc1`, the IC50 in series [1] is 3.29 µM; in series [2], 0.5 µM; in series [3] it was 3.91 µM. Also, the Ratio IC50 in the series listed under Oryctolagus cuniculus worked out at 0.15. The inhibition in vivo at 10.44 mg/kg in the series with Rattus norvegicus [4] was 28.6%; in the series on Rattus norvegicus [5], 33.3%; with Rattus norvegicus [6] it was 23.5%. Moreover, the inhibition in vivo at 20.88 mg/kg in the series on Mus musculus [7] was 73.2%. In the series on Rattus norvegicus [8], the Activity turned out to be 0.81 mm2.
On to `CS(=O)(=O)c1ccc(/C=C2/C(=O)Nc3ccccc32)cc1`, for which the IC50 in [1] stood at 5.52 µM; in [2], 9.32 µM; in series [3], 9.51 µM. The Ratio IC50 in the series filed under Oryctolagus cuniculus is 1.69. In addition, the inhibition in vivo at 9.08 mg/kg is 28.6% in the series with Rattus norvegicus [9], 38.9% in the series on Rattus norvegicus [10] and 21.6% in the series on Rattus norvegicus [11]. Further, the inhibition in vivo at 18.16 mg/kg in the series with Mus musculus [12] came out at 54.4%. Moreover, the Activity in the series with Rattus norvegicus [13] was found to be 0.56 mm2.
With `CS(=O)(=O)c1ccc(/C=C2/C(=O)Nc3ccc(Br)cc32)cc1`, the figures for the IC50 in series [1], in series [2] and in series [3] were 0.1 µM, 0.11 µM and 0.56 µM, respectively. Further, the Ratio IC50 in the series listed under Oryctolagus cuniculus is 1.1. Further, the inhibition in vivo at 11.48 mg/kg in the series on Rattus norvegicus [14] is 33.3%; in the series with Rattus norvegicus [15], 47.2%; with Rattus norvegicus [16], 29.4%. For the same compound, the inhibition in vivo at 22.96 mg/kg with Mus musculus [17] is 82.8%. Also, the Activity with Rattus norvegicus [18] was determined as 0.44 mm2.
As to `NS(=O)(=O)c1ccc(/C=C2/C(=O)Nc3ccc(Cl)cc32)cc1`, the IC50 in series [1] was 3.31 µM; in series [2] it was 0.16 µM; in series [3], 3.37 µM. For the same compound, the Ratio IC50 in the series listed under Oryctolagus cuniculus worked out at 0.05. In addition, the inhibition in vivo at 10.15 mg/kg in the series on Rattus norvegicus [19] came out at 19.1%; in the series with Rattus norvegicus [20], 33.3%; in the series with Rattus norvegicus [21], 19.6%. In addition, the inhibition in vivo at 20.3 mg/kg with Mus musculus [22] amounted to 80.7%. In addition, the Activity in the series with Rattus norvegicus [23] was determined as 0.19 mm2.
As to `NS(=O)(=O)c1ccc(/C=C2/C(=O)Nc3ccc([N+](=O)[O-])cc32)cc1`, the IC50 is 3.72 µM in series [1], 0.14 µM in series [2] and 3.06 µM in series [3]. Moreover, in the series listed under Oryctolagus cuniculus, the Ratio IC50 is 0.04. In addition, the inhibition in vivo at 10.47 mg/kg in the series on Rattus norvegicus [24] turned out to be 9.52%; in the series on Rattus norvegicus [25], 22.2%; in the series with Rattus norvegicus [26], 13.7%. The inhibition in vivo at 20.94 mg/kg with Mus musculus [27] was determined as 40.8%. For the same compound, the Activity in the series with Rattus norvegicus [28] turned out to be 0.12 mm2.
